{"source": "patent US8772252B2", "about": "“Coumarin compounds as melanogenesis modifiers and uses thereof” (New York University, priority 2011, dated 2014)", "test_system": "cultured murine melanocytes (melan-a)", "experiment": "Melanin assay in cultured murine melanocytes (melan-a) screened with library compounds", "format": "cell-based", "settings": "melan-a cells, 72 hours of incubation", "experimental": "The Spectrum Collection library consisting of 2000 drug compounds or natural products represents a source for the identification of compounds useful in the present invention. The library may be screened to identify novel pigmentation inhibitors in cultured murine melanocytes (melan-a). Compounds are dissolved in dimethylsulfoxide (DMSO) to a final concentration of 10 mM. Screening is performed with cultured melanocytes in 24-well plates followed by melanin assay (see below). A minimum change of 50% in melanin formation is established as significant for a pigmentation inhibitor. DMSO may be used as a negative control and the widely used depigmenting agent, hydroquinone, may be used as a positive control on every plate. Primary screening is performed at a final concentration of 1 μM and potential candidates from the primary screening are reconfirmed in duplicate at final concentrations of 1 and 5 μM.\nMelan-a cells are plated at 5×10^4 cells per well in 1 ml of culture media in 24-well plates the day before adding the library compounds. All compounds are added at the indicated final concentrations. Cells are harvested after 72 hours of incubation, and the melanin assay is performed.\nFor further test and mechanism of action studies, the compounds may be purchased from Sigma, MicroSource or other known suppliers. The compounds are dissolved in dimethylsulfoxide (DMSO) to a final concentration of 10 mM, and are tested for their effect on melanin synthesis at the indicated final concentrations.\nFor the primary and secondary screening, cells were harvested and dissolved in 200 μl of 2N NaOH in 20% DMSO at 70° C. A 180-μl aliquot of the resulting solution was measured for absorbance at 490 nm.\nCells are harvested in extraction buffer (1% Triton X-100, 50 mM Tris, 2 mM EDTA, 150 mM NaCl, pH 7.5) containing a complete protease inhibitor cocktail (Roche). The lysates were centrifuged at 14,000 rpm for 10 minutes at 4° C. BCA protein assay kit (Pierce) was used to measure the protein concentrations of the supernatants, and bovine serum albumin was used as a standard. The remaining pellets were incubated with 100 μl ethanol-ether (1:1) for 10 minutes at room temperature. After removing the ethanol-ether, the pellets were dissolved in 200 μl of 2N NaOH in 20% DMSO at 70° C. A 180-μl aliquot of the resulting solution was measured for absorbance at 490 nm. The melanin contents were normalized to the total amount of protein."}
{"smiles": "CC(C)(OC(=O)c1ccccc1)[C@@H]1Cc2cc3ccc(=O)oc3cc2O1", "note": "[compound 36]", "values": [{"measurement": "activity at 1 µM", "setting": "Mus musculus, Melan-a, 72 h, 1 μM, read-out: % of control melanin remaining after treatment @ 1 μM", "value": 81, "unit": "%"}, {"measurement": "activity at 5 µM", "setting": "Mus musculus, Melan-a, 72 h, 5 μM, read-out: % of control melanin remaining after treatment @ 5 μM", "value": 87, "unit": "%"}]}
{"smiles": "COc1c(C(C)C)oc2cc3oc(=O)ccc3cc12", "note": "[compound 40]", "values": [{"measurement": "% of control melanin remaining after treatment @ 1 μM", "setting": "1 μM", "value": 97, "unit": "%"}, {"measurement": "% of control melanin remaining after treatment @ 5 μM", "setting": "5 μM", "value": 88, "unit": "%"}]}
